# In patent US20070117794A1, “Methods of treatment using oxytocin receptor agonists” (Wyeth, priority 2005, published 2007):
# Entries after “also recorded” stand apart in the source; their conditions may differ.
# Legend:
# Male Swiss-Webster mice = test: Four-Plate Test (FPT), punished crossings; assay type: in vivo, mouse; details: for reversal of the anxiolytic-like effect of cpd A / blockade of the anxiolytic-like effect of cpd A (in words): co-administered with cpd A 10 mg/kg; for blockade of the anxiolytic-like effect of cpd A (in words): cpd B 10-30 mg/kg
# Procedure: Animals: Male Swiss-Webster mice weighing 18-24 g were housed in groups of 15 in hanging wire cages, allowed access to food and water ad libitum, and maintained on a 12-hour light dark cycle. All behavioral testing was performed during the light cycle. All studies were previously approved by the Institutional Animal Care and Use Committee, and performed in accordance to the Guide for the Care and Use of Laboratory Animals as adopted and promulgated by the National Institutes of Health.
# Test Compounds: Oxytocin (American Peptide Company, Sunnyvale, Calif.) was dissolved in a saline vehicle. The oxytocin agonist 4,-(3,5-Dihydroxy-benzyl)-piperazine-1-carboxylic acid 2-methyl-4-(3-methyl-4,10-dihydro-3H-2,3,4,9-tetra-aza-benzo[f]azulene-9-carbonyl)-benzylamide (hereinafter “cpd A”) and oxytocin antagonist 10-[(2-Methyl-2′-trifluoromethyl-[1,1′-biphenyl]-4-yl)carbonyl]-10,11-dihydro-5H-pyrrolo[2,1-c][1,4]benzodiazepine-3-carboxylic acid-bis-(2-hydroxy-ethyl)-amide (hereinafter “cpd B”) (Patent W/O 02/083680) were prepared and dissolved in a 1% Tween-80/1% DMSO/saline vehicle.
# ICV injections: Mice were lightly anesthetized with halothane. Oxytocin was administered into either the left or right ventricle by visual location. A 26 gauge Hamilton syringe with 3 mm needle was used for injections and the injection site was visualized by locating the middle of the invisible line that runs diagonally from the left eye to the right ear. Test compounds were injected in a 2 μl total volume.
# Four-Plate Test (FPT:) The four-plate apparatus consists of a Plexiglas chamber (18×25×16 cm) floored with four identical rectangular metal plates (8×11 cm), which are separated from one another by a gap of 4 mm and connected to a computerized device that can deliver electric shocks (0.8 mA, 0.5 sec) (Aron et al. Evaluation of a rapid technique for detecting minor tranquilizers, Neuropharmacology 10: 459-69 (1971)). In this test, mice are placed into the chamber and following a brief (18 seconds) habituation period, the animal's innate motivation to explore the novel environment is suppressed by the delivery of a mild foot shock every time the animal crosses any of the boundaries (gaps) while moving from one plate to another (referred to as a ‘punished crossing’). Following any punished crossing, there is a 3-second time out where the mouse may cross the electric plates without receiving another shock. An experimenter blind to the dosing conditions administers shocks, and a computer records the total number of punished crossings an animal makes during a 1-minute testing period. […] Pharmacol Biochem Behav 65: 339-44 (2000)). In all experiments, the testing procedure consisted of either a single injection or two injections followed by a test session 30 minutes later.
# Statistical Analysis: One-way analysis of variance (ANOVA) was performed to determine effects of test compound treatments, followed by Least Significant Difference Tests for a post hoc analysis. All figures are shown with average ±SEM.
# [1] = system: Male Sprague-Dawley derived Rats; test: Prepulse inhibition of the acoustic startle reflex (PPI), d-Amphetamine disrupted; assay type: in vivo, rat; details: for reversal of d-amphetamine induced disruption of PPI: i.p., 30 mins prior to test, hydrochloride
# Source text: (§1) Prepulse inhibition of the acoustic startle reflex (PPI) is an operational measure of sensorimotor gating that can be measured across many species. Deficits in PPI have been reported in patients with schizophrenia, leading to its use as a preclinical model of the disease. In rats, PPI is decreased in a manner homologous to that seen in schizophrenia following administration of certain psychotomimetic drugs (e.g. MK801; amphetamine). In our study we utilized MK801, a non-competitive NMDA antagonist and d-Amphetamine, a non-selective dopamine agonist.
# (§2) Animals: Male Sprague-Dawley derived Rats (SD) weighing 200-250 g were group housed in standard bedding cages, allowed access to food and water ad libitum, and maintained on a 12-hour light dark cycle. All behavioral testing was performed during the light cycle. All studies were previously approved by the Institutional Animal Care and Use Committee, and performed in accordance to the Guide for the Care and Use of Laboratory Animals as adopted and promulgated by the National Institutes of Health.
# (§3) Test Compounds: The oxytocin agonist cpd A was dissolved in a 1% Tween-80/1% DMSO/saline vehicle. MK801 (Sigma, St. Louis, Mo.) was dissolved in 2% Tween-80/saline. d-Amphetamine (Sigma, St. Louis, Mo.) was dissolved in saline.
# (§4) Each testing chamber (SR-LAB system, San Diego Instruments) consisted of a Plexiglas cylinder (8.8 cm in diameter) mounted on a frame and held in position by four metal pins to a base unit. Movement of the rat within the cylinder was detected by a piezoelectric accelerometer attached below the frame. […] Presentation of acoustic pulse and prepulse stimuli were controlled by the SR-LAB software and interface system, which also digitized, rectified and recorded the responses from the accelerometer. Mean startle amplitude was determined by averaging 100, 1 ms readings taken from the beginning of the pulse stimulus onset. For calibration purposes, sound levels were measured with a Quest sound level meter, scale “A”, with the microphone placed inside the Plexiglas cylinder. […]
# [2] = system: Male Sprague-Dawley derived Rats; test: Prepulse inhibition of the acoustic startle reflex (PPI), MK801 disrupted; assay type: in vivo, rat
# Source text: as §1, §2, §3, §4
# Startle amplitude was defined as the mean value of pulse alone trials. To evaluate the effect of drug treatment on startle response, data from the pulse alone trials was analyzed using one-factor ANOVA with repeated measures (one-way randomized block design), followed by a least significant difference (LSD) post-hoc test (comparison was made to vehicle/disrupting agent control). […] Although data for gating at three different prepulse intensities was generated, an averaged gating score across all prepulse intensities was calculated and this was analyzed by one factor ANOVA with repeated measures (one-way randomized block design). […]
# male rats = details: OT 1-4 ug/kg, s.c.; cited from earlier work
# mouse = details: OT 3 mg/kg, i.p.; cited from earlier work
# rats = details: cited from earlier work
# OTR = biological target: T1, OTR (Homo sapiens, UniProt P30559); details: cited from earlier work
# T1 sequence (P30559 1-389): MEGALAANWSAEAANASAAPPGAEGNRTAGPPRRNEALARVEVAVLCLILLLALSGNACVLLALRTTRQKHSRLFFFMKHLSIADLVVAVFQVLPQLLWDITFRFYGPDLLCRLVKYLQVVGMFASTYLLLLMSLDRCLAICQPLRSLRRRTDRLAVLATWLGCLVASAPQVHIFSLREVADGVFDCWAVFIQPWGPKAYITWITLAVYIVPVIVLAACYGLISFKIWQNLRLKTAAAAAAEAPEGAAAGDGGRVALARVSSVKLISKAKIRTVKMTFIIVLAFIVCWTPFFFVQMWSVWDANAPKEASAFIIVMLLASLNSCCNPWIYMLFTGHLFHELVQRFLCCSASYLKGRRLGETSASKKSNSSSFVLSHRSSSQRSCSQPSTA
# rat = details: subcutaneous oxytocin; deficit induced by dizocilpine and amphetamine; cited from earlier work
smiles,measurement,setting,value
"Cc1cc(C(=O)N2Cc3ccc(C(=O)N(CCO)CCO)n3Cc3ccccc32)ccc1-c1ccccc1C(F)(F)F [cpd B, 10-[(2-Methyl-2′-trifluoromethyl-[1,1′-biphenyl]-4-yl)carbonyl]-10,11-dihydro-5H-pyrrolo[2,1-c][1,4]benzodiazepine-3-carboxylic acid-bis-(2-hydroxy-ethyl)-amide]",reversal of the anxiolytic-like effect of cpd A,"Male Swiss-Webster mice; cpd B 10 mg/kg, ip",63%
same,reversal of the anxiolytic-like effect of cpd A,"Male Swiss-Webster mice; cpd B 30 mg/kg, ip, p<0.05",100%
same,blockade of the anxiolytic-like effect of cpd A (in words),Male Swiss-Webster mice; ip,blocked the anxiolytic-like effect of cpd A in a dose-dependent manner
same,blockade of the anxiolytic-like effect of cpd A (in words),"Male Swiss-Webster mice; ip, listed as Cpd B",dose-dependently blocks the anxiolytic-like effect of Cpd A
same,punished crossings (effect in words),Male Swiss-Webster mice; cpd B administered alone,no effect on punished crossings
"Cc1cc(C(=O)N2Cc3cnn(C)c3Nc3ccccc32)ccc1CNC(=O)N1CCN(Cc2cc(O)cc(O)c2)CC1.Cl [Cpd A (HCl salt), 4,-(3,5-Dihydroxy-benzyl)-piperazine-1-carboxylic acid 2-methyl-4-(3-methyl-4,10-dihydro-3H -2,3,4,9-tetra-aza-benzo[f]azulene-9-carbonyl)-benzylamide hydrochloride]",reversal of d-amphetamine induced disruption of PPI,"[1]; Cpd A (HCl salt) 10 mg/kg, 10 mg/kg",reversed d-amphetamine induced disruption at 5 dB and 10 dB; also recorded: reversed d-amphetamine—induced deficit at 5 dB and 10 dB
same,reversal of d-amphetamine induced disruption of PPI,"[1]; Cpd A (HCl salt) 30 mg/kg, 30 mg/kg",reversed the d-amphetamine induced disruption at 10 dB
CC[C@H](C)[C@@H]1NC(=O)[C@H](Cc2ccc(O)cc2)NC(=O)[C@@H](N)CSSC[C@@H](C(=O)N2CCC[C@H]2C(=O)N[C@@H](CC(C)C)C(=O)NCC(N)=O)NC(=O)[C@H](CC(N)=O)NC(=O)[C@H](CCC(N)=O)NC1=O [Oxytocin],increase in punished crossings from vehicle,"Male Swiss-Webster mice; oxytocin 3 μg, icv, 30 minutes prior to testing, p<0.05",30%
same,increase in punished crossings from vehicle,"Male Swiss-Webster mice; oxytocin 10 μg, icv, 30 minutes prior to testing, p<0.05",51%
same,punished crossings (effect in words),"Male Swiss-Webster mice; oxytocin 1-10 μg icv (b94 prints 1-10 mg), 30 minutes prior to testing",dose-dependent increase in punished crossings
same,reversal of MK801 induced deficits in PPI,"[2]; oxytocin 0.04-1 mg/kg s.c., data not shown",reversed the MK801 induced deficits in PPI in rats in a dose dependent manner
same,peripheral locomotor activity in the Open-Field model,male rats,decrease in peripheral locomotor activity
same,activity in elevated-plus maze,mouse,anxiolytic-like activity
same,open arm entries and time spent in the open arms of the elevated plus-maze,"rats; OT 10-100 ng, i.c.v.",increases in open arm entries and time spent in the open arms
same,activity in the elevated-plus maze,"rats; pregnant or lactating rats, but not virgin rats",Anxiolytic activity
same,selectivity for OT compared to AVP at the OTR,OTR,10 fold
same,restoration of prepulse inhibition,rat,dose-dependently restore prepulse inhibition
C[C@H](N)Cc1ccccc1 [d-Amphetamine],disruption of PPI,"[1]; d-Amphetamine 4 mg/kg s.c., 10 min prior to test, 5 dB, 10 dB & 15 dB prepulse",produced significant disruption across all three prepulse intensities
C[C@]12N[C@H](Cc3ccccc31)c1ccccc12 [MK801],disruption of PPI,"[2]; MK801 0.1 mg/kg s.c., 10 min prior to test, 5 dB, 10 dB & 15 dB prepulse, 0.1 mg/kg",produced significant disruption in PPI across three prepulse intensities; also recorded: produced significant disruption across all three prepulse intensities
same,startle alone,"[2]; MK801 0.1 mg/kg s.c., 10 min prior to test, p >0.05",no effect on startle alone
"Cc1cc(C(=O)N2Cc3cnn(C)c3Nc3ccccc32)ccc1CNC(=O)N1CCN(Cc2cc(O)cc(O)c2)CC1 [cpd A, 4,-(3,5-Dihydroxy-benzyl)-piperazine-1-carboxylic acid 2-methyl-4-(3-methyl-4,10-dihydro-3H-2,3,4,9-tetra-aza-benzo[f]azulene-9-carbonyl)-benzylamide]",increase in punished crossings from vehicle,"Male Swiss-Webster mice; cpd A 10 mg/kg, ip, 30 minutes prior to testing, p<0.05",32%
same,punished crossings (effect in words),"Male Swiss-Webster mice; cpd A 10 mg/kg, ip, antagonist study (FIG. 3), p<0.05, 10 mg/kg",increases punished crossings; also recorded: increased punished crossings compared to vehicle
same,increase in punished crossings from vehicle,"Male Swiss-Webster mice; cpd A 30 mg/kg, ip, 30 minutes prior to testing, p<0.05",25%
same,punished crossings (effect in words),"Male Swiss-Webster mice; cpd A 3-100 mg/kg, ip, 30 minutes prior to testing",increases the number of punished crossings; also recorded: significant overall effect on punished crossings
same,reversal of MK801 induced deficits in PPI,"[2]; Cpd A 30 mg/kg i.p. (highest dose of 3-30 mg/kg), 30 mins prior to test",reversed MK801 induced deficits in PPI at 10 dB & 15 dB levels; also recorded: reversed MK801 induced disruption at 10 dB and 15 dB
